We go through 1 compound from US20160128338A1, “COMPOSITION AND METHODS FOR IMPROVED TURF HEALTH” (Valent U.S.A., Corporation, priority 2014, published 2016).

For assay [1], the system named is Dollar spot (Sclerotinia homoeocarpa). Put plainly: Dollar spot on creeping bentgrass fairways, field plots (% damage). Type of assay: in vivo. The note with it: Plot 2, Metconazole 0.14 oz ai/1000 sq ft. The text has this:
(§1) In order to determine the efficacy of combinations of metconazole and Myrothecium verucaria fermentation solids and solubles, numerous treatments were applied to plots in an area of turf grass. Specifically, the plots had established creeping bentgrass growing. No weed infestation was observed. Each plot was 30 square feet and the treatments were done in four replications. A randomized control was included in each block. The plots were no-till golf fairways. The treatments were applied during times of heat stress and also during times when no heat stress was present. The treatment solutions were prepared by pouring the liquid and dispersible granules in water and mixing. Treatments were applied to the turf grass at a volume of 2 gallons (256 liquid ounces)/1000 ft^2 with a CO2 backpack sprayer at 34 psi with a ground speed of 1 mph. The plots received six applications on 22 May, 6 June, 19 June, 4 July, 17 July, and 14 August. The turf grass was evaluated approximately every 7 days. Effect of Metconazole and Myrothecium verucaria fermentation solids and solubles on Dollar Spot on Creeping Bentgrass Fairways (% Damage)” and “Table 2. Effect of Metconazole and Myrothecium verucaria fermentation solids and solubles on Dollar Spot on Creeping Bentgrass Fairways (Quality Rating Based on a Scale of 1-9)”.

The test system of another assay is creeping bentgrass. Briefly: Turf quality rating of creeping bentgrass fairways with dollar spot, field plots (scale 1-9). It is filed as in vivo, creeping bentgrass (Agrostis stolonifera). The conditions noted are these: Plot 2, Metconazole 0.14 oz ai/1000 sq ft.
Source text: as §1

Regarding `CC1(C)CCC(Cc2ccc(Cl)cc2)C1(O)Cn1cncn1` (centres unmarked) [Metconazole, 5-[(4-chlorophenyl)methyl]-2,2-dimetyl-1-(1 H-1,2,4-triazol-1-ylmethyl)cyclopentanol], the “Dollar Spot % Damage” value in assay [1] (3 July) is on record as 16.3%; in assay [1] (6 June), 8.8%; in assay [1] (7 Aug), 36.3%; in assay [1] (10 July) it was 32.5%; in assay [1] (14 Aug), 55.0%; in assay [1] (15 June), 7.5%. In addition, the “Dollar Spot % Damage” value is 36.3% in assay [1] (17 July); 37.5% in assay [1] (21 Aug); 10.0% in assay [1] (22 June); 24.3% in assay [1] (25 July); 11.3% in assay [1] (26 June); 31.3% in assay [1] (31 July). Also, the “Quality Rating Based on a Scale of 1-9” value in the assay on creeping bentgrass (3 July) worked out at 4.5; in the assay with creeping bentgrass (7 Aug), 4.8; in the assay with creeping bentgrass (10 July), 3.8; in the assay with creeping bentgrass (14 Aug), 4.0; in the assay with creeping bentgrass (15 June) it was 6.0; with creeping bentgrass (17 July) it was 3.5. For the same compound, the “Quality Rating Based on a Scale of 1-9” value in the assay on creeping bentgrass (21 Aug) amounted to 4.3; with creeping bentgrass (22 June), 5.5; in the assay with creeping bentgrass (25 July), 4.8; with creeping bentgrass (26 June), 5.5; in the assay on creeping bentgrass (31 July) it was 4.8.
